Results reported in US20070092576A1, “Compositions containing opioid antagonists” (Adolor Corporation, priority 2005, published 2007).

Assays:
analgesia = assay: Propensity for reversing analgesia after oral administration; format: in vivo; settings: administered orally; compared with alvimopan
[1] = Solubility of the drug substance; format: physicochemical; settings: for solubility in water: dihydrate

| SMILES | propensity for reversing analgesia (analgesia) | solubility as a function of pH ([1]; acid pH versus basic pH) | solubility in water [1] | solubility in water ([1]; listed as compound of formula (II)) |
| --- | --- | --- | --- | --- |
| C[C@H]1CN(C[C@H](Cc2ccccc2)C(=O)O)CC[C@@]1(C)c1cccc(O)c1 [(3R, 4R, S)-Q-CH2CH(CH2(C6H5))C(O)OH, (αS,3R,4R)-4-(3-hydroxyphenyl)-3,4-dimethyl-α-(phenylmethyl)-1-piperidinepropanoic acid monohydrate] | much greater propensity for undesirably reversing analgesia than alvimopan |  |  |  |
| C[C@H]1CN(C[C@H](Cc2ccccc2)C(=O)NCC(=O)O)CC[C@@]1(C)c1cccc(O)c1 [Alvimopan, [[2(S)-[[4(R)-(3-hydroxyphenyl)-3(R),4-dimethyl-1-piperidinyl]methyl]-1-oxo-3-phenylpropyl]amino]acetic acid dihydrate] |  | more soluble at an acid pH than a basic pH | extremely low solubility in water | low solubility in water except at low or high pH conditions |
